In US20070025930A1, “Dibenzoilmethane derivative compounds, the use thereof in the form of photoactivable solar filters and cosmetic compositions containing said compounds” (UNIVERSITE PAUL SABATIER TOULOUSE 3, priority 2003, published 2007):

Experiments:
[1] = background statement on the reference screening agent; cited from earlier work
[2] = Tests of stability towards UV radiation: water-in-oil preparation on a quartz slide, UVA absorbance monitored under solar irradiation; type: physicochemical; details: for Variation in the absorbance at 356 nm: water-in-oil preparation on quartz slide; for decrease in UVA absorbance: preparation with 1% by mass of screening agents; for decrease of the absorbance at 356 nm: mean UV flux 4 mW/cm^2; for photostability compared with Parsol 1789: solar irradiation of preparations
Excerpt: By way of example, the changes under irradiation of a base preparation (water-in-oil emulsion) containing the compounds obtained in the above examples, i.e. compound C10 and compound O10, are compared with that of the same preparation containing Parsol 1789 (mass % equivalent for each screening agent).
By way of example, the chosen preparations may be composed as follows:
Glycasil L 0.19%, butyl paraben 0.3%, beeswax 4%, PEG-30 dipolyhydroxystearate 3%, dicapryl carbonate 10%, polyglyceryl-3-diisostearate 1.5%, water 78.64%, xanthan gum 1%, Na2EDTA 0.2%, NaCI 1%; methyl paraben 0.17%
To this common base is added, depending on the case, the compounds C10 or O10 or Parsol 1789 in equivalent mass %. 15 to 20 mg of these preparations are spread onto a quartz slide and the UVA absorbance of the slide is monitored over time under solar irradiation (in the month of June at 43° latitude north between 13.00 h and 16.00 h, mean flux of the solar UV radiation: 4 mW/cm^2, Oriel 70380 UV Radiometer—response between 280 nm and 400 nm with a maximum at 370 nm)). The absorbance at 356 nm of the plate with Parsol 1789 decreases by 51% in 1 hour and by 73% in 2 hours. In the same time, the plates that received compound O10 have an absorbance that increases by 16% in 1 hour and 19% in 2 hours. […]

[3] = UV absorption (absorption maximum, molar extinction coefficient) in solution; type: physicochemical
Excerpt: As an illustration of these ultraviolet-absorbing capacities, measurements were taken for two dibenzoylmethane derivatives according to the invention: • for a compound of formula (I) in which R1, R′1, R2, R′2, R3, R′3, R4, R′4 and R′5 each represent a hydrogen atom and R5 represents a saturated linear acyclic carbon-based chain containing 10 carbon atoms, the absorption maximum is (in solution in acetonitrile) at 263 nm with a molar extinction coefficient of 20 000 I.cm^−1.mol^−1. This compound will be referred to hereinbelow as compound C10; • for a compound of formula (I) in which R1, R′1, R2, R′2, R3, R′3, R4, R′4 and R5 each represent a hydrogen atom and R′5 represents a saturated linear acyclic carbon-based chain containing 10 carbon atoms, the absorption maximum (in solution in acetonitrile) is at 302 nm with a molar extinction coefficient of 17 000 I.cm^−1.mol^−1.
This is likewise the case for compound C10. Furthermore, in organized medium, these two compounds, subjected to ultraviolet radiation, undergo a shift of their maximum absorbance wavelength from UVB to UVA, thus causing the same effect as organization of the system. As a result, the maximum shift of the absorption bands towards UVA is obtained by placing these compounds in organized medium under irradiation, as is the case for an antisun cosmetic preparation under the normal conditions of its use. Irradiation of the preparation amplifies the phenomenon induced by the medium in which the compounds are present. There are therefore two screening molecules present, the absorbing power of which appears in its entirety only when they are subjected to ultraviolet exposure, in an organized medium. The protection capacity of a preparation containing them should thus increase during exposure, rather than decrease, which is the case for preparations containing Parsol 1789 as sole UV-screening agent. This increase in the absorbance at the start of exposure makes it possible to maintain a maximum level of protection for longer.
The NMR spectra were acquired using a Bruker ARX 400 MHz machine. […]

Structure (SMILES) | maximum absorption efficacy (wavelength) [1] | Variation in the absorbance at 356 nm ([2]; Irradiation 1 hour solar UV) | Variation in the absorbance at 356 nm ([2]; Irradiation 2 hours solar UV) | decrease in UVA absorbance ([2]; after 2 hours solar irradiation) | decrease of the absorbance at 356 nm ([2]; in 1 hour solar irradiation) | decrease in UVA absorbance ([2]; in 1 hour solar irradiation) | decrease of the absorbance at 356 nm ([2]; in 2 hours solar irradiation) | absorption maximum ([3]; in solution in acetonitrile) | molar extinction coefficient ([3]; in solution in acetonitrile, at the absorption maximum) | absorption maximum in the UVA range (solvatochromy) ([3]; organized solvents, e.g. micellar solutions of sodium dodecyl sulfate) | absorbance after 2 hours of exposure to sunlight versus initial absorbance ([2]; 2 hours of solar irradiation, compared with before irradiation) | absorbance change during the first hour of exposure to sunlight ([2]; first hour of solar irradiation) | decrease of the absorbance during the second hour ([2]; relative to the maximum achieved after 1 hour of irradiation) | photostability compared with Parsol 1789 [2]
COc1ccc(C(=O)CC(=O)c2ccc(C(C)(C)C)cc2)cc1 [Parsol 1789, 4-tert-butyl-4′-methoxydibenzoylmethane, reference compound] | about 340 nm | −51% | −73% | 73% | 51% | 51% | 73% | – | – | – | – | – | – | –
CCCCCCCCCCC(C(=O)c1ccc(OC)cc1)C(=O)c1ccc(C(C)(C)C)cc1 (centres unmarked) [compound C10, 3-(4-tert-butylphenyl)-2-decanyl-1-(4-methoxyphenyl)propane-1,3-dione] | – | +400% | +264% | – | – | – | – | 263 nm | 20 000 I.cm^−1.mol^−1 | about 360 nm | remains markedly higher than its initial absorbance | increases greatly | 27% | much more photostable than Parsol 1789
CCCCCCCCCCO/C(=C\C(=O)c1ccc(OC)cc1)c1ccc(C(C)(C)C)cc1 [compound O10, 3-(4-tert-butylphenyl)-3-decanoxy-1-(4-methoxy-phenyl) prop-2-ene-1-one] | – | – | – | – | – | – | – | – | – | – | – | – | – | much more photostable than Parsol 1789
